Data reported in US20230114728A1 (Venatorx Pharmaceuticals, Inc., priority 2019, published 2023).
≈ marks a conversion by molar mass, not a printed value.

What was measured:
E. coli K12 PBP3 = target: T1, E. coli K12 PBP3 (Escherichia coli, UniProt P0AD68); assay: biochemical; type: binding
T1 construct: made in house
Method in brief: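 Fluorescence polarization (ex 490/em 520 nm) competition of inhibitors against Bocillin-FL at 0.1 μM, read up to 60 min. Final PBP levels: E. coli PBP3 1.5 μM; A. baumannii PBP2 2.5 μM, PBP3 0.2 μM in Tris pH 8.0/NaCl/glycerol/Tween 20; N. gonorrhoeae PBP2 […] in Hepes pH 8.0/NaCl/glycerol. EC50 = concentration halving PBP-bound Bocillin-FL.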

N. gonorrhoeae WHO L = assay: Liquid broth MIC in Fastidious broth; type: cell-based; details: Neisseria gonorrhoeae; N. gonorrhoeae strain WHO L; Fastidious broth; read-out: Minimum Inhibitory Concentration, N. gonorrhoeae WHO L
Method in brief: (§1)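 Colonies were swabbed from chocolate agar after 24 h growth and standardised by optical density at 600 nm. Compounds were serially diluted twofold in Fastidious broth, and bacteria added to give 5×10^5 CFU/mL. After about 24 h at 36 °C in 5% CO2, the lowest concentration allowing under 10% growth was taken as MIC.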

[1] = test system: N. gonorrhoeae ATCC 49226; assay: Liquid broth MIC in Fastidious broth; type: cell-based; details: Neisseria gonorrhoeae, ATCC49226; N. gonorrhoeae strain ATCC 49226; Fastidious broth; read-out: Minimum Inhibitory Concentration, N. gonorrhoeae ATCC 49226
Method in brief: as §1

N. gonorrhoeae WHO K = assay: Liquid broth MIC in Fastidious broth; type: cell-based; details: Neisseria gonorrhoeae, read-out: Minimum Inhibitory Concentration, N. gonorrhoeae WHO K
Method in brief: (§2)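 Mosaic PBP2 producers; colonies from 24 h chocolate agar, saline suspension, OD600. Fastidious broth, 2-fold dilutions, 5×10^5 CFU/mL. ~24 h, 36 °C, 5% CO2; visual MIC, <10% growth cutoff.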

N. gonorrhoeae WHO Q = assay: Liquid broth MIC in Fastidious broth; type: cell-based; details: Neisseria gonorrhoeae, read-out: Minimum Inhibitory Concentration, N. gonorrhoeae WHO Q
Method in brief: as §2

N. gonorrhoeae FA1090 = assay: Liquid broth MIC in Fastidious broth; type: cell-based; details: Neisseria gonorrhoeae; N. gonorrhoeae strain FA1090; Fastidious broth; read-out: Minimum Inhibitory Concentration, N. gonorrhoeae FA1090
Method in brief: as §1

N. gonorrhoeae WHO Z = assay: Liquid broth MIC in Fastidious broth; type: cell-based; details: Neisseria gonorrhoeae, read-out: Minimum Inhibitory Concentration, N. gonorrhoeae WHO Z
Method in brief: as §2

N. gonorrhoeae WHO G = assay: Liquid broth MIC in Fastidious broth; type: cell-based; details: Neisseria gonorrhoeae; N. gonorrhoeae strain WHO G; Fastidious broth; read-out: Minimum Inhibitory Concentration, N. gonorrhoeae WHO G
Method in brief: as §1

P. aeruginosa PBP3 = target: T2, P. aeruginosa PBP3 (Pseudomonas aeruginosa, UniProt G3XD46); assay: Bocillin-FL fluorescence polarization competition binding assay, P. aeruginosa PBP3; details: fluorescence polarization competition binding assay using Bocillin-FL
T2 construct: made in house
Method in brief: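 Binding of boronic acid inhibitors to purified Pseudomonas aeruginosa (PA01) PBP3 was measured by fluorescence polarization competition with Bocillin-FL, a fluorescent penicillin V. Reactions of 80 μl contained 0.75 μM PBP3 and 0.1 μM Bocillin-FL in 50 mM Hepes (pH 8.0), 300 mM NaCl and 5% (v/v) glycerol, in black 384-well plates. FP (Excitation 490 nm, Emission 520 nm) was read for up to 60 minutes. EC50 is the concentration that halves PBP-bound Bocillin-FL.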

T2 sequence (G3XD46 whole entry): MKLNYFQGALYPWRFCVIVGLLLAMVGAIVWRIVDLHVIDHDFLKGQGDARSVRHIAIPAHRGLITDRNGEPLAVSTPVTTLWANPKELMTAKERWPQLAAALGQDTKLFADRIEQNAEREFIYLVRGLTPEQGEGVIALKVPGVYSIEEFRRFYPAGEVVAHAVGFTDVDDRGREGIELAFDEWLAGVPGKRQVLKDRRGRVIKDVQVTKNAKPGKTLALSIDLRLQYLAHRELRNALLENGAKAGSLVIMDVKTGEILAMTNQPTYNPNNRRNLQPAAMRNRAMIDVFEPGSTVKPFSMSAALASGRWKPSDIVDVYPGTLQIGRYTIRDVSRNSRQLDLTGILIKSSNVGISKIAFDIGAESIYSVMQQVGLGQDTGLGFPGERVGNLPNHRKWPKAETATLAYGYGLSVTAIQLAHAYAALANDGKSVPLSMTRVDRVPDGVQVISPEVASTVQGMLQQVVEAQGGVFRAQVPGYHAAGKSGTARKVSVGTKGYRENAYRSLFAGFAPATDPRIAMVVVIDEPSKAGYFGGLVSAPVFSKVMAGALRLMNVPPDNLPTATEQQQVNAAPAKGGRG
T1 sequence (P0AD68 1-577): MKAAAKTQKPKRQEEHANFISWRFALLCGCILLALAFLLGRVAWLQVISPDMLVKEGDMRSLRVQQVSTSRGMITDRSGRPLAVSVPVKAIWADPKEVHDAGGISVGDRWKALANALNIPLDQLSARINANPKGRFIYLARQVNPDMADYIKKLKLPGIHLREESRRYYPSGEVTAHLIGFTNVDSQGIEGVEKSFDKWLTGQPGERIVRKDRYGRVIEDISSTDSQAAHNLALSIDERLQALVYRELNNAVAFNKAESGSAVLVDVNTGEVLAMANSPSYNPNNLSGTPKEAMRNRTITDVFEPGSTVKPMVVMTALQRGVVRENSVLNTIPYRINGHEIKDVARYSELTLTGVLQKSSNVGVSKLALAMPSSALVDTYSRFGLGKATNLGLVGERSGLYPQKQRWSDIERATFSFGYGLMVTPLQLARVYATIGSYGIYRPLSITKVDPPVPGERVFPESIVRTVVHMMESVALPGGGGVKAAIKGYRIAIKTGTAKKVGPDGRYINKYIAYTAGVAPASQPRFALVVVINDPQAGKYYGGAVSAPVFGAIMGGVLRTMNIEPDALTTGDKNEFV

SMILES: NCCCN1CCN(C(=O)N[C@H](C(=O)N[C@H]2Cc3cccc(C(=O)O)c3OB2O)c2cccc(NS(N)(=O)=O)c2)C(=O)C1=O [Example 118, (R)-3-((S)-2-(4-(3-aminopropyl)-2,3-dioxopiperazine-1-carboxamido)-2-(3-(sulfamoylamino)phenyl)acetamido)-2-hydroxy-3,4-dihydro-2H-benzo[e][1,2]oxaborinine-8-carboxylic acid]
- EC50 (E. coli K12 PBP3): 30 to 500 µM
- MIC (N. gonorrhoeae WHO L): > 64 µg/mL
- MIC [1]: > 64 µg/mL
- MIC (N. gonorrhoeae WHO K): > 64 µg/mL
- MIC (N. gonorrhoeae WHO Q): > 64 µg/mL
- MIC (N. gonorrhoeae FA1090): 4 to 8 µg/mL (≈ 6.33 to 12.7 µM)
- MIC (N. gonorrhoeae WHO Z): > 64 µg/mL
- MIC (N. gonorrhoeae WHO G): > 64 µg/mL
- P. aeruginosa PBP3 Potency (P. aeruginosa PBP3): D (D represents a potency <10 μM)

SMILES: NS(=O)(=O)Nc1cccc(C(NC(=O)N2CCN(Cc3c(F)cc(O)c(O)c3Cl)C(=O)C2=O)C(=O)N[C@H]2Cc3cccc(C(=O)O)c3OB2O)c1 (stereo partly drawn) [Example 131, (3R)-3-(2-(4-(2-chloro-6-fluoro-3,4-dihydroxybenzyl)-2,3-dioxopiperazine-1-carboxamido)-2-(3-(sulfamoylamino)phenyl)acetamido)-2-hydroxy-3,4-dihydro-2H-benzo[e][1,2]oxaborinine-8-carboxylic acid]
- EC50 (E. coli K12 PBP3): < 30 µM
- MIC (N. gonorrhoeae WHO L): > 64 µg/mL
- MIC [1]: > 64 µg/mL
- MIC (N. gonorrhoeae WHO K): > 64 µg/mL
- MIC (N. gonorrhoeae WHO Q): > 64 µg/mL
- MIC (N. gonorrhoeae FA1090): 16 to 32 µg/mL (≈ 21.4 to 42.7 µM)
- MIC (N. gonorrhoeae WHO Z): > 64 µg/mL
- MIC (N. gonorrhoeae WHO G): > 64 µg/mL
- P. aeruginosa PBP3 Potency (P. aeruginosa PBP3): D (D represents a potency <10 μM)

SMILES: CCN1CCN(C(=O)NC(C(=O)N[C@H]2Cc3cccc(C(=O)O)c3OB2O)c2c(F)cc(C(=O)O)cc2F)C(=O)C1=O (stereo partly drawn) [Example 157, (3R)-3-(2-(4-carboxy-2,6-difluorophenyl)-2-(4-ethyl-2,3-dioxopiperazine-1-carboxamido)acetamido)-2-hydroxy-3,4-dihydro-2H-benzo[e][1,2]oxaborinine-8-carboxylic acid]
- EC50 (E. coli K12 PBP3): < 30 µM
- MIC (N. gonorrhoeae WHO L): 4 to 8 µg/mL (≈ 6.8 to 13.6 µM)
- MIC [1]: 4 to 8 µg/mL (≈ 6.8 to 13.6 µM)
- MIC (N. gonorrhoeae WHO K): 4 to 8 µg/mL (≈ 6.8 to 13.6 µM)
- MIC (N. gonorrhoeae WHO Q): 4 to 8 µg/mL (≈ 6.8 to 13.6 µM)
- MIC (N. gonorrhoeae FA1090): < 0.125 µg/mL
- MIC (N. gonorrhoeae WHO Z): 4 to 8 µg/mL (≈ 6.8 to 13.6 µM)
- MIC (N. gonorrhoeae WHO G): 1 to 2 µg/mL (≈ 1.7 to 3.4 µM)
- P. aeruginosa PBP3 Potency (P. aeruginosa PBP3): D (D represents a potency <10 μM)

SMILES: NC1(CN2CCN(C(=O)N[C@H](C(=O)N[C@H]3Cc4cccc(C(=O)O)c4OB3O)c3c(F)cc(O)cc3F)C(=O)C2=O)CC1 (single isomer, unassigned) [Example 122]
- EC50 (E. coli K12 PBP3): < 30 µM
- MIC (N. gonorrhoeae WHO L): > 64 µg/mL
- MIC [1]: > 64 µg/mL
- MIC (N. gonorrhoeae WHO K): > 64 µg/mL
- MIC (N. gonorrhoeae WHO Q): > 64 µg/mL
- MIC (N. gonorrhoeae FA1090): 4 to 8 µg/mL (≈ 6.65 to 13.3 µM)
- MIC (N. gonorrhoeae WHO Z): > 64 µg/mL
- MIC (N. gonorrhoeae WHO G): > 64 µg/mL
- P. aeruginosa PBP3 Potency (P. aeruginosa PBP3): D (D represents a potency <10 μM)

SMILES: NCCN1CCN(C(=O)N[C@H](C(=O)N[C@H]2Cc3cccc(C(=O)O)c3OB2O)c2cc(F)c(O)c(F)c2F)C(=O)C1=O (single isomer, unassigned) [Example 167]
- EC50 (E. coli K12 PBP3): 30 to 500 µM
- MIC (N. gonorrhoeae WHO L): > 64 µg/mL
- MIC [1]: 16 to 32 µg/mL (≈ 27 to 53.9 µM)
- MIC (N. gonorrhoeae WHO K): > 64 µg/mL
- MIC (N. gonorrhoeae WHO Q): > 64 µg/mL
- MIC (N. gonorrhoeae FA1090): 1 to 2 µg/mL (≈ 1.69 to 3.37 µM)
- MIC (N. gonorrhoeae WHO Z): > 64 µg/mL
- MIC (N. gonorrhoeae WHO G): 16 to 32 µg/mL (≈ 27 to 53.9 µM)
- P. aeruginosa PBP3 Potency (P. aeruginosa PBP3): D (D represents a potency <10 μM)

SMILES: CCN1CCN(C(=O)N[C@H](C(=O)N[C@H]2Cc3ccc(F)c(C(=O)O)c3OB2O)c2c(F)cc(O)c(O)c2Cl)C(=O)C1=O (single isomer, unassigned) [Example 125]
- EC50 (E. coli K12 PBP3): > 500 µM
- MIC (N. gonorrhoeae WHO L): > 64 µg/mL
- MIC [1]: > 64 µg/mL
- MIC (N. gonorrhoeae WHO K): > 64 µg/mL
- MIC (N. gonorrhoeae WHO Q): > 64 µg/mL
- MIC (N. gonorrhoeae FA1090): > 64 µg/mL
- MIC (N. gonorrhoeae WHO Z): > 64 µg/mL
- MIC (N. gonorrhoeae WHO G): > 64 µg/mL
- P. aeruginosa PBP3 Potency (P. aeruginosa PBP3): A (A represents a potency of >500 μM)
